“Also recorded” adds a separate entry of the source.
Experiments:
[1] = system: subcutaneous NBTII tumors; experiment: Bladder cannulated rats with only subcutaneous NBTII tumors, no bladder tumor (Example 4); assay type: in vivo, rat; details: two perfusion cycles, FIG. 7
Experimental: To confirm the observed effects on subcutaneous tumor growth is the result of the local action of intravesical gemcitabine on bladder tumors, an additional series of experiments were completed in which bladder cannulated rats were implanted with only subcutaneous NBTII tumors. The animals were then treated with two perfusion cycles of intravesical gemcitabine as in the previous experiments. […] These findings both confirm the presence of a bladder tumor is required and the observed reductions in subcutaneous tumors are mediated immunologically.

NBTII flank tumors = experiment: Gemcitabine immunogenicity study, NBTII bladder and flank tumors (Example 2); assay type: in vivo, rat
Text: Gemcitabine immunogenicity was studied in immunocompetent rats with NBTII cells injected into the bladder and subcutaneous flank tissue; flank tumors were implanted either simultaneously with bladder tumors or 14 days after bladder tumor injection. Control groups received only flank tumors, N=15, or bladder and flank tumors with vehicle perfusion, N=10. […]

IL-10 = IL-10 levels in rats inoculated with NBTII bladder tumors; assay type: in vivo, rat; details: spleens of treated animals, FIG. 9
Text: (§1) IL-10 increases associated with acute treatment are known to facilitate T cell mediated antitumor effects.

[2] = system: activated CD4 and CD8 cells in the spleen; experiment: Activated CD4 and CD8 cells in the spleen by flow cytometry, NBT-II tumor rats; assay type: in vivo, rat; details: vs untreated tumor rats, FIG. 11
Experimental: Rats were inoculated with NBT-II tumors and the number of activated CD4 and CD8 cells in the spleen was assessed by flow cytometry either in rats treated with intravesicular gemcitabine or untreated rats. […] Intravesicular gemcitabine increased the percentage of activated CD4 and CD8 cells, thus indicating activation of the immune system against the tumor.

[3] = system: subcutaneous NBTII tumors; experiment: Bladder and flank NBTII tumor model, subcutaneous tumor volume by caliper (Example 1); assay type: in vivo, rat
Text: Standardized bladder perfusion system was modified to introduce bladder and subcutaneous tumors. The bladders were first surgically cannulated by placing a catheter into the bladder, fixed in place using a suture, the free end exteriorized between the scapulae.
The animals were allowed to heal. Bladder tumors were established by injecting tumor cell suspension directly into bladder wall. Subcutaneous tumor was established by injecting tumor cell suspension under skin abdominal flank.
The bladder and flank tumor model used in this study utilized immunocompetent Wistar rats, 7 to 8 weeks in age and weighing between 150 to 200 g. The bladders were first surgically cannulated by placing a P50 catheter into the bladder dome which was fixed in place using a purse string suture and the free end exteriorized between the scapulae. […] Per study protocol, different groups of bladder cannulated rats were next inoculated with NBTII tumor cells (Nara Bladder Tumor No. 2; ATCC® CRL1655™). This is a rat syngeneic bladder tumor cell line originally derived from tumors induced with N-butyl-N-(4-hydroxybutyl) nitrosamine. In certain treatment groups, the tumor cells were injected directly into the bladder wall as a 50 uL cell suspension of approximately 2×10^6 cells. […]
Group 4 (SCT with BT, N=10) animal bladders were cannulated on study Day 0 and on study Day 4 both the bladder and abdominal flank were inoculated with NBTII tumor cells. Gemcitabine HCl in PBS (180 ug/mL) was perfused via the cannula into the bladder beginning on study Day 6 at a constant rate of 0.3 mL per hour for 5 days and again beginning on Day 20 for an additional 5 day treatment period.
Subcutaneous tumor volumes were serially measured post inoculation every two or three days using a caliper method.

[4] = prior studies in animals and humans; cited from earlier work
[5] = Gemcitabine urine concentration during intravesicular perfusion; assay type: in vivo, rat; details: intravesicular perfusion of 180 ug/ml solution
NBTII tumor cells = experiment: Bladder tumor growth after inoculation with NBTII tumor cells; assay type: in vivo, rat; details: average urine concentration 40 ug/mL
[6] = system: tumor T regulatory cells to T effector cells; experiment: Flow cytometric immunocyte analysis of residual NBTII bladder tumors; assay type: in vivo, rat; details: residual NBTII tumors from immunocompetent rats
Experimental: (§2) The direct effects of low dose gemcitabine were studied in athymic rats with human derived MIBC cells, T24-TurboFP635, injected into the bladder. After 3 days tumor growth, gemcitabine or vehicle was perfused into the bladder over 5 days, yielding nominal urine concentrations of 0, 20, 40, or 80 ug/ml gemcitabine, N=6 per group. Tumor bioluminescence was measured on day 5. A companion study in immunocompetent rats inoculated with syngeneic NBTII bladder tumors, provided tumors for immunocyte analysis.

TGF-β = experiment: Circulating TGF-β in rats inoculated with NBTII bladder tumors; assay type: in vivo, rat; details: low concentration intravesical perfusion, FIG. 8
Text: TGF-β drives Treg cell expression which in turn suppresses both local and systemic CD4 and CD8 T cell response against the bladder tumor.

[7] = system: subcutaneous NBTII tumors; experiment: Varying gemcitabine bladder exposure, simultaneously implanted bladder and subcutaneous NBTII tumors (Example 3); assay type: in vivo, rat; details: perfusion 45 and 90 μg/ml, nominal urine 10 and 20 μg/ml, FIG. 6
Text: Extending the investigation described in EXAMPLE 1, additional studies of NBTII bladder and subcutaneous tumors evaluated the effect of varying gemcitabine bladder exposures with and without simultaneous bladder tumor implantation.
In one set of experiments, gemcitabine perfusion concentrations were varied to evaluate the effect of differing bladder tumor exposures on subcutaneous tumor growth rates. Bladder cannulated rats (n=10 per treatment group) with simultaneously implanted bladder and subcutaneous NBTII tumors were studied over two treatment cycles, each separated by a 7-day drug free period, as used in the EXAMPLE 1 study.
Gemcitabine perfusion concentrations of 45 μg/ml and 90 μg/ml were tested, producing nominal urine concentrations of 10 μg/ml and 20 μg/ml respectively, representing […] reductions vs the original study gemcitabine urine concentrations. Subcutaneous tumor growth was measured during the study as previously.

[8] = system: CD4+FOXP3+ and CD8+FOXP3+ regulatory T cells; experiment: Splenic regulatory T cells by flow cytometry, NBT-II tumor rats; assay type: in vivo, rat; details: vs untreated tumor rats, FIG. 12
Text: The percentage splenic of regulatory T cells was assed using flow cytometry. […] Intravesicular gemcitabine increased the percentage of activated Cn both CD4+FOXP3+ and CD8+FOXP3+ regulatory T cells, thus indicating activation of the systemic immune system against the tumor.

[9] = system: T24-TurboFP635 human derived MIBC cells; experiment: Bladder tumor bioluminescence in athymic rats with T24-TurboFP635 cells injected into the bladder; assay type: in vivo, rat; details: for reduction in bladder tumor bioluminescence vs control: athymic rats, 5-day perfusion, day 5
Experimental: as §2

TNF-α = TNF-α levels in rats inoculated with NBTII bladder tumors; assay type: in vivo, rat; details: FIG. 10
Text: as §1

[10] = rats with concomitant bladder tumors

## Nc1ccn([C@@H]2O[C@H](CO)[C@@H](O)C2(F)F)c(=O)n1 [gemcitabine, 2′,2′-difluorodeoxycytidine]
[1]
  subcutaneous tumor growth in rats without bladder tumor: continued to grow throughout both treatment cycles
NBTII flank tumors; 60 ug/ml group
  flank tumor growth arrest during the 7-day drug free period: this effect was maintained
NBTII flank tumors; flank tumor implanted 14 days after bladder tumor
  flank tumor response, implantation delayed to 3 days before the second perfusion: no tumor growth, but immediate tumor ablation
NBTII flank tumors; flank tumors implanted simultaneously with bladder tumors
  flank tumor response to the second perfusion: rapid flank tumor ablation in all but one animal
NBTII flank tumors; [10]
  flank tumor growth during the first perfusion cycle: fully arrested
  flank tumor size relative to controls during the first perfusion cycle: 50 % of controls
IL-10
  IL-10 levels: increased IL-10 levels
[2]
  percentage of activated CD4 cells in the spleen: increased
  percentage of activated CD8 cells in the spleen: increased
[3]; Group 3 (SCT after BT): subcutaneous tumor implanted Day 17 after first perfusion, 180 ug/mL
  subcutaneous tumor volume during second 5-day intravesical perfusion: all subcutaneous tumors were undetectable by palpation; also recorded: immediately declined in tumor volume until the tumors were no longer detectable
[3]; Group 3 and 4 combined, two 5-day cycles of 180 ug/mL
  eradication of subcutaneous tumors upon retreatment: complete eradication of all but one subcutaneous tumor
[3]; Group 4 (SCT with BT), 180 ug/mL, second cycle from Day 20
  subcutaneous tumor volume after second 5-day intravesical treatment: all but one tumor was undetectable by palpation
[3]; Group 4 (SCT with BT), after first 5-day perfusion of 180 ug/mL
  subcutaneous tumor growth over the 7-day drug free period: failed to return to their initial growth rate
[3]; Group 4 (SCT with BT): bladder and subcutaneous tumors Day 4, 180 ug/mL perfused 0.3 mL per hour for 5 days
  subcutaneous tumor growth by the end of the first intravesical perfusion period: dramatically slowed or fully arrested; also recorded: continued to grow for several days prior to arresting
[4]
  systemic drug concentrations after low concentrations of intravesical gemcitabine: do not produce therapeutic drug concentrations systemically
[5]
  average gemcitabine urine concentration: 40 µg/mL
NBTII tumor cells
  bladder tumor growth after inoculation with NBTII tumor cells: significantly reduce bladder tumor growth
[6]
  decrease in the proportion of tumor T regulatory cells to T effector cells: 85.2%
TGF-β
  circulating TGF-β plasma concentration: suppressed TGF-β production
[7]
  subcutaneous tumor volume at reduced urine concentrations: dose related reduction in subcutaneous tumor volume
  subcutaneous tumor volume during the second treatment cycle: significantly decreased to near ablation
[8]
  percentage of splenic CD4+FOXP3+ regulatory T cells: increased
  percentage of splenic CD8+FOXP3+ regulatory T cells: increased
[9]; nominal urine concentration 20 ug/ml
  reduction in bladder tumor bioluminescence vs control: 47.6%
[9]; nominal urine concentration 40 ug/ml
  reduction in bladder tumor bioluminescence vs control: 70.5%
[9]; nominal urine concentration 80 ug/ml
  reduction in bladder tumor bioluminescence vs control: 91.2%
[9]; average urine concentration 40 ug/mL
  bladder tumor growth after inoculation with T24 tumor cells: significantly reduce bladder tumor growth
TNF-α
  TNF-α level: moderately increased

Source: patent US12059428B2, “Methods of treating tumor metastasis” (TARIS Biomedical LLC, priority 2017, dated 2024)
